Legend:
[1] = Differential solubility in acetonitrile (PTx method, NRTL model); settings: at or near ambient conditions; for solubility in acetonitrile: solvent acetonitrile, from NRTL model generated from the PTx data (FIG. 7)
From the text: Static Vapor-Liquid Equilibrium Methods are a class of experimental techniques that can be used to identify thermodynamic interactions between a solvent (i.e. absorbing species) and a target solute (i.e. species being absorbed). One such technique, known as the PTx method, collects measurements of the total saturation pressure (“P”) exerted by mixtures of known compositions (“x”) at fixed temperatures (“T”) and cell volumes. […] Using data collected from the PTx experiment, as well as pure component properties of constituents of the mixtures, the thermodynamic properties of the mixtures can be accurately characterized by fitting the component's interaction parameters in a well-defined thermodynamic equation; one such equation is the Nonrandom, Two-liquid (NRTL) activity coefficient model by Renon and Prausnitz (Local Compositions in Thermodynamic Excess Functions for Liquid Mixtures, AIChE Journal, Vol. 14, January 1968, pp. 135-144).
(§1) From a well-characterized thermodynamic model (such as NRTL fit against PTx data), solubility curves can be generated. The solubility is defined as the liquid composition of the solute in the liquid phase at saturation, generally as a function of pressure and temperature. By comparing solubility curves for different solutes, the solvent's selectivity (i.e. preference) towards a particular solute can be identified; the larger the selectivity the more the solvent prefers to absorb one species while rejecting the other.
Following the same procedure as described in Example 7A, the PTx behavior of trifluoroiodomethane (CF3I) with acetonitrile and trifluoroacetyl chloride (CF3COCl) with acetonitrile was studied at temperatures of −10° C., 10° C., 30° C., and 50° C. […]
(§2) Using the NRTL model generated from the PTx data, the solubility of both trifluoroiodomethane (CF3I) and trifluoroacetyl chloride (CF3COCl) for a given temperature and pressure can be determined and compared.

[2] = Differential solubility in toluene (PTx method, NRTL model); settings: around ambient conditions; for solubility in toluene: solvent toluene, from NRTL model generated from the PTx data (FIG. 5)
From the text: One such technique, known as the PTx method, collects measurements of the total saturation pressure (“P”) exerted by mixtures of known compositions (“x”) at fixed temperatures (“T”) and cell volumes. […] Using data collected from the PTx experiment, as well as pure component properties of constituents of the mixtures, the thermodynamic properties of the mixtures can be accurately characterized by fitting the component's interaction parameters in a well-defined thermodynamic equation; one such equation is the Nonrandom, Two-liquid (NRTL) activity coefficient model by Renon and Prausnitz (Local Compositions in Thermodynamic Excess Functions for Liquid Mixtures, AIChE Journal, Vol. 14, January 1968, pp. 135-144).
as §1
A set of volume calibrated PTx cells were used to measure the solubility characteristics of trifluoroiodomethane (CF3I) in toluene as well as trifluoroacetyl chloride (CF3COCl) in toluene. Mixtures of trifluoroiodomethane (CF3I) and toluene as well as trifluoroacetyl chloride (CF3COCl) and toluene were gravimetrically prepared into evacuated PTx cells. […] Once at equilibrium, recognized when temperature and pressures of each cell remain stable for several hours, the local temperature and saturation pressures of each cell were recorded and adjustments for the next set point were made. […]
as §2

[3] = Differential solubility in mineral oil (PTx method, NRTL model); settings: solvent mineral oil; at or near ambient conditions; from NRTL model generated from the PTx data (FIG. 6)
From the text: as §1
Following the same procedure described in Example 7A, the PTx behavior of trifluoroiodomethane (CF3I) with mineral oil and trifluoroacetyl chloride (CF3COCl) with mineral oil was studied at temperatures of 0° C., 20° C., 40° C., and 60° C. Unlike toluene (a single aromatic hydrocarbon entity), the mineral oil solvent comprised a mixture several types of hydrocarbons such as alkanes, cycloalkanes, and others. From the pressure-temperature-composition data, the binary interaction parameters of trifluoroiodomethane (CF3I) with mineral oil and trifluoroacetyl chloride (CF3COCl) with mineral oil for the NRTL activity coefficient model were identified.
as §2

| Structure (SMILES) | selectivity of solvent towards CF3I over CF3COCl ([1]; acetonitrile) | selectivity of solvent towards CF3I over CF3COCl ([2]; toluene) | solubility in toluene [2] | solubility in mineral oil [3] | solubility in acetonitrile [1] |
| --- | --- | --- | --- | --- | --- |
| CC#N [acetonitrile] | about 2.5 times |  |  |  |  |
| Cc1ccccc1 [toluene] |  | about 3.5 times |  |  |  |
| FC(F)(F)I [trifluoroiodomethane] |  |  | about 40.8 mass % | about 12.2 mass % | about 39.0 mass % |
| O=C(Cl)C(F)(F)F [trifluoroacetyl chloride] |  |  | about 11.6 mass % | about 3.6 mass % | about 15.8 mass % |

Source: patent US11565992B2, “Methods for separation of azeotrope or azeotrope-like compositions of trifluoroiodomethane (CF3I) and trifluoroacetyl chloride (CF3COCI)” (Honeywell International Inc., priority 2020, dated 2023)
